Values quoted from earlier work, collected in patent US20240164409A1, “A METHOD OF REDUCING METHANE PRODUCTION IN A RUMINANT ANIMAL” (DIT AgTech Limited, priority 2021, published 2024).
In brackets after ≈: the same amount, converted by molar mass.

Details: for Characterised as: water solubility in words

| Structure (SMILES) | Characterised as | Solubility in water |
| --- | --- | --- |
| O=[N+]([O-])OCCCO [3-nitrooxypropanol] | Soluble |  |
| BrC(Br)Br [Bromoform] | Sparingly soluble | 3.2 mg/mL (≈ 12.7 mM) |
